{"source": "ChEMBL document CHEMBL4613322", "about": "“HOPPI-NMR: Hot-Peptide-Based Screening Assay for Inhibitors of Protein-Protein Interactions by NMR” (ACS Med Chem Lett, 2020)", "key": {"[1]": {"molecular_target": "Ras-related protein Rab-6A (Homo sapiens, UniProt P20340)", "sequence (P20340 whole entry)": "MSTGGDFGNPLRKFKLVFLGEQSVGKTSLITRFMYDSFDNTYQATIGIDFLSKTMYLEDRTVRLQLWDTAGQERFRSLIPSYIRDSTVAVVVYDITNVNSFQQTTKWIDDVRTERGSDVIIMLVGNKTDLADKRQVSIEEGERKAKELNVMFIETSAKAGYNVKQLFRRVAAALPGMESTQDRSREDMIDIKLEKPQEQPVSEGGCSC", "assay": "Binding affinity to RAB6A (unknown origin) assessed as inhibition of RAB6A/[…] protein-protein interaction"}, "[2]": {"molecular_target": "T1, BTB/POZ domain-containing protein KCTD11 (Homo sapiens, UniProt Q693B1)", "T1 sequence (Q693B1 whole entry)": "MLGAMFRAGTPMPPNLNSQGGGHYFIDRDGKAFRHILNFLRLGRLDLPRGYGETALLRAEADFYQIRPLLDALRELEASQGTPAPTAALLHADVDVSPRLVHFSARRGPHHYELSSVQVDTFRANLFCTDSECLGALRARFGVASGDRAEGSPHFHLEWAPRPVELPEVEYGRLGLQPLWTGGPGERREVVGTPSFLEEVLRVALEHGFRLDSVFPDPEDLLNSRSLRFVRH", "assay": "Binding affinity to recombinant N-terminal poly His-Trx tagged KCTD11 (15 to 115 residues) (unknown origin) expressed in Escherichia coli assessed as inhibition of KCTD11/cullin3a protein-protein interaction by fluorescence polarization assay"}, "[3]": {"molecular_target": "T2, Menin (Homo sapiens, UniProt O00255)", "T2 sequence (O00255 whole entry)": "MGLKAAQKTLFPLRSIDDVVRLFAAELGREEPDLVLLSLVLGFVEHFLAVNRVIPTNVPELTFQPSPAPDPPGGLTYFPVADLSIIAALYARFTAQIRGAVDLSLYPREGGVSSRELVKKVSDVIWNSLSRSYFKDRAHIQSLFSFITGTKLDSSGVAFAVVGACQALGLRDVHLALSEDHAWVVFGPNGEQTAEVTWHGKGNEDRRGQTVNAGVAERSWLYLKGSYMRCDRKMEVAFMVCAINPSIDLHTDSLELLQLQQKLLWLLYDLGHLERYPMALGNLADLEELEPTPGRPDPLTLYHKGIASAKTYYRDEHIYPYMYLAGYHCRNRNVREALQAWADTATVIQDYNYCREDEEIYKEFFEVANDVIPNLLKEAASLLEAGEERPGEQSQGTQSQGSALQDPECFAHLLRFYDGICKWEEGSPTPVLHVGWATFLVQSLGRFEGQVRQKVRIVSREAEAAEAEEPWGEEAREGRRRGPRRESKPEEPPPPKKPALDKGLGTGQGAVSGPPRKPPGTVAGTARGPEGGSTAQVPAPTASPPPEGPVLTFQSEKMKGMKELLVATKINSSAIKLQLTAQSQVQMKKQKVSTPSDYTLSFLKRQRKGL", "assay": "Binding affinity to human Menin expressed in Escherichia coli BL21 (DE3) assessed as inhibition of Menin/MLL1 protein-protein at 20 degree C by isothermal titration calorimetry"}, "[4]": {"molecular_target": "T3, E3 ubiquitin-protein ligase Mdm2 (Homo sapiens, UniProt Q00987)", "assay": "Competitive binding affinity to 6xHis-taged MDM2 (unknown origin) expressed in Escherichia coli Gold (DE3) assessed as reduction in signal intensity at 0.1 mM in presence of 0.1 mM nutlin-3a by WATERLOGSY-NMR analysis"}, "[5]": {"molecular_target": "T3, E3 ubiquitin-protein ligase Mdm2", "assay": "Binding affinity to 6xHis-taged MDM2 (unknown origin) expressed in Escherichia coli Gold (DE3) assessed as increase in signal-to-noise ratio at 0.1 mM by STD-NMR analysis"}, "[6]": {"molecular_target": "T3, E3 ubiquitin-protein ligase Mdm2", "assay": "Competitive binding affinity to 6xHis-taged MDM2 (unknown origin) expressed in Escherichia coli Gold (DE3) assessed as observation of residual signal at 0.1 mM in presence of 0.1 mM nutlin-3a by STD-NMR analysis"}, "[7]": {"molecular_target": "T3, E3 ubiquitin-protein ligase Mdm2", "assay": "Binding affinity to N-terminal 6xHis-tagged MDM2 (unknown origin) (1 to 126 residues) assessed as inhibition of MDM2/p53 protein-protein interaction by fluorescence anisotrophy assay"}, "[8]": {"molecular_target": "T3, E3 ubiquitin-protein ligase Mdm2", "assay": "Binding affinity to 6xHis-taged MDM2 (unknown origin) expressed in Escherichia coli Gold (DE3) assessed as observation of positive signal at 0.1 mM by STD-NMR analysis"}, "[9]": {"molecular_target": "T3, E3 ubiquitin-protein ligase Mdm2", "assay": "Binding affinity to 6xHis-taged MDM2 (unknown origin) expressed in Escherichia coli Gold (DE3) assessed as inversion of signal intensity from negative to positive at 0.1 mM by WATERLOGSY-NMR analysis"}, "[10]": {"molecular_target": "T3, E3 ubiquitin-protein ligase Mdm2", "assay": "Competitive binding affinity to 6xHis-taged MDM2 (unknown origin) expressed in Escherichia coli Gold (DE3) assessed as reduction in STD signal intensity at 0.1 mM in presence of 0.1 mM nutlin-3a by STD-NMR analysis"}, "[11]": {"molecular_target": "T4, Estrogen receptor (Homo sapiens, UniProt P03372)", "T4 sequence (P03372 whole entry)": "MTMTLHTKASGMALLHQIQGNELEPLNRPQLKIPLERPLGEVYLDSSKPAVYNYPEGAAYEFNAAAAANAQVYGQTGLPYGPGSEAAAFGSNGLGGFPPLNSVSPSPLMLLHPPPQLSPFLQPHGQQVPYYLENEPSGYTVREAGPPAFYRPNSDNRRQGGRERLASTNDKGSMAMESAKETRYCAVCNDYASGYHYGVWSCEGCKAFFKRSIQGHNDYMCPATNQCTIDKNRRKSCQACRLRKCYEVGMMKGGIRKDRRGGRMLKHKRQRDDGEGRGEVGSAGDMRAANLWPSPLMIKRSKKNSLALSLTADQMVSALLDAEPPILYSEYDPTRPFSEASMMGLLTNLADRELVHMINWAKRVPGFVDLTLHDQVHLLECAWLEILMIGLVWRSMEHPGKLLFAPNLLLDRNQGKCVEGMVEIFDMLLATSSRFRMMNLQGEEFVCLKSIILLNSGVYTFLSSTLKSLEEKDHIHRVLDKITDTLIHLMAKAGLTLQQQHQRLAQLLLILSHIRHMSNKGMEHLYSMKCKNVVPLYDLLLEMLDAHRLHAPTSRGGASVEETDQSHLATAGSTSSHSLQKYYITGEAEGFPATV", "assay": "Binding affinity to IPTG-induced human ER alpha LBD (301 to 553 residues) expressed in Escherichia coli BL21 (DE3) assessed as inhibition of ER alpha/NR2A protein-protein interaction at 25 degree by surface plasmon resonance assay"}, "[12]": {"assay": "Binding affinity to IPTG-induced […] human TEV cleavage site-fused- GST-tagged beta-catenin (134 to 665 residues) assessed as inhibition of beta-catenin/axin protein-protein interaction after 45 mins by fluorescence polarization assay"}, "[13]": {"molecular_target": "T3, E3 ubiquitin-protein ligase Mdm2", "assay": "Binding affinity to 6xHis-taged MDM2 (unknown origin) expressed in Escherichia coli Gold (DE3) assessed as change in signal intensity at 0.1 mM by WATERLOGSY-NMR analysis"}, "[14]": {"assay": "Binding affinity to Plasmodium falciparum N-terminal His6-tagged MTIP expressed in Escherichia coli BL21 (DE3) assessed as inhibition of MTIP/MyoA protein-protein interaction at 303 K by isothermal titration calorimetry"}}, "note": "The source made the active and inactive calls. The calls are words filed in the database; no cut-off is given here. Peptide text beside a SMILES is read from it."}
{"molecule": "CC(C)C[C@H](NC(=O)[C@H](CC(C)C)NC(=O)[C@H](Cc1cnc[nH]1)NC(=O)[C@H](Cc1ccc(O)cc1)NC(=O)[C@H](CC(C)C)NC(=O)[C@H](Cc1ccccc1)NC(=O)[C@H](CCC(N)=O)NC(=O)[C@H](CCC(=O)O)NC(=O)[C@H](CCCCN)NC(=O)[C@H](CCC(=O)O)NC(=O)[C@H](CC(=O)O)NC(=O)[C@@H](N)CC(=O)O)C(=O)N[C@@H](CO)C(=O)N[C@@H](Cc1ccccc1)C(=O)N[C@@H](CC(N)=O)C(=O)N[C@@H](C)C(=O)N[C@H](C(=O)O)C(C)C", "note": "(H-DDEKEQFLYHLLSFNAV-OH)", "values": [{"measurement": "Kd", "setting": "[1]", "value": 20000, "unit": "nM"}]}
{"molecule": "CSCC[C@H](NC(=O)[C@@H](NC(=O)[C@H](Cc1ccc(O)cc1)NC(=O)[C@H](C)NC(=O)[C@H](CC(N)=O)NC(=O)[C@H](CCCNC(=N)N)NC(=O)[C@H](Cc1ccc(O)cc1)NC(=O)[C@H](CC(C)C)NC(=O)[C@H](CCC(=O)O)NC(=O)[C@H](CCC(=O)O)NC(=O)[C@H](Cc1ccccc1)NC(=O)[C@H](CO)NC(=O)[C@H](CC(C)C)NC(=O)CNC(=O)[C@H](CO)NC(=O)[C@@H](N)CC(N)=O)[C@@H](C)O)C(=O)N[C@H](C(=O)N[C@@H](CC(C)C)C(=O)N[C@@H](Cc1cnc[nH]1)C(=O)N[C@@H](CCCCN)C(=O)O)C(C)C", "note": "(H-NSGLSFEELYRNAYTMVLHK-OH)", "values": [{"measurement": "Kd", "setting": "[2]", "value": 497, "unit": "nM"}]}
{"molecule": "C[C@H](NC(=O)[C@@H]1CCCN1C(=O)[C@H](Cc1ccccc1)NC(=O)[C@H](CCCNC(=N)N)NC(=O)[C@H](Cc1c[nH]c2ccccc12)NC(=O)[C@@H](N)CCCNC(=N)N)C(=O)N[C@@H](CCCNC(=N)N)C(=O)N1CCC[C@H]1C(=O)NCC(=O)N[C@H](C(=O)N[C@H](C(=O)NCC(=O)NCC(=O)NCC(=O)NCC(=O)NCC(=O)NCC(=O)NCC(=O)N[C@@H](CCCNC(=N)N)C(=O)N[C@@H](CCCNC(=N)N)C(=O)O)[C@@H](C)O)[C@@H](C)O", "note": "(H-RWRFPARPGTTGGGGGGGRR-OH)", "values": [{"measurement": "Kd", "setting": "[3]", "value": 82, "unit": "nM"}]}
{"molecule": "CC(C)C[C@H](NC(=O)[C@H](CCCCN)NC(=O)[C@H](Cc1c[nH]c2ccccc12)NC(=O)[C@H](CC(C)C)NC(=O)[C@H](CC(=O)O)NC(=O)[C@H](CO)NC(=O)[C@@H](N)Cc1ccccc1)C(=O)O", "note": "(H-FSDLWKL-OH)", "values": [{"measurement": "Activity", "setting": "[4]", "value": "Active"}, {"measurement": "Activity", "setting": "[5]", "value": "Active"}, {"measurement": "Activity", "setting": "[6]", "value": "Active"}, {"measurement": "Kd", "setting": "[7]", "value": 150000, "unit": "nM"}, {"measurement": "Activity", "setting": "[8]", "value": "Active"}, {"measurement": "Activity", "setting": "[9]", "value": "Active"}, {"measurement": "Activity", "setting": "[10]", "value": "Active"}]}
{"molecule": "CC[C@H](C)[C@H](NC(=O)[C@H](CCCCN)NC(=O)[C@@H](N)Cc1cnc[nH]1)C(=O)N[C@@H](CC(C)C)C(=O)N[C@@H](Cc1cnc[nH]1)C(=O)N[C@@H](CCCNC(=N)N)C(=O)N[C@@H](CC(C)C)C(=O)N[C@@H](CC(C)C)C(=O)N[C@@H](CCC(N)=O)C(=O)N[C@@H](CC(=O)O)C(=O)N[C@@H](CO)C(=O)O", "note": "(H-HKILHRLLQDS-OH)", "values": [{"measurement": "Kd", "setting": "[11]", "value": 2500, "unit": "nM"}]}
{"molecule": "CC[C@H](C)[C@H](NC(=O)[C@H](CO)NC(=O)[C@H](CCC(=O)O)NC(=O)[C@@H]1CCCN1C(=O)[C@H](CC(N)=O)NC(=O)[C@@H](N)CCC(=O)O)C(=O)N[C@@H](CC(C)C)C(=O)N[C@@H](CC(=O)O)C(=O)N[C@@H](CCC(=O)O)C(=O)N[C@@H](Cc1cnc[nH]1)C(=O)N[C@H](C(=O)N[C@@H](CCC(N)=O)C(=O)N[C@@H](CCCNC(=N)N)C(=O)N[C@H](C(=O)N[C@@H](CCSC)C(=O)O)C(C)C)C(C)C", "note": "(H-ENPESILDEHVQRVM-OH)", "values": [{"measurement": "Kd", "setting": "[12]", "value": 5000, "unit": "nM"}]}
{"molecule": "CC(C)C[C@H](NC(=O)[C@H](CC(C)C)NC(=O)[C@H](CCCCN)NC(=O)[C@H](Cc1c[nH]c2ccccc12)NC(=O)[C@H](CC(C)C)NC(=O)[C@H](CC(=O)O)NC(=O)[C@H](CO)NC(=O)[C@@H](N)Cc1ccccc1)C(=O)O", "values": [{"measurement": "Activity", "setting": "[4]", "value": "Active"}, {"measurement": "Activity", "setting": "[5]", "value": "Active"}, {"measurement": "Kd", "setting": "[7]", "value": 800, "unit": "nM"}, {"measurement": "Activity", "setting": "[8]", "value": "Active"}, {"measurement": "Activity", "setting": "[10]", "value": "Active"}, {"measurement": "Activity", "setting": "[13]", "value": "Active"}]}
{"molecule": "CC[C@H](C)[C@H](NC(=O)[C@H](Cc1cnc[nH]1)NC(=O)[C@H](C)NC(=O)[C@H](CCC(N)=O)NC(=O)[C@@H](NC(=O)[C@H](CCCNC(=N)N)NC(=O)[C@H](CC(C)C)NC(=O)[C@H](CC(C)C)NC(=O)[C@H](CO)NC(=O)[C@@H]1CCCN1C(=O)[C@@H](NC(=O)[C@@H](N)CC(N)=O)[C@@H](C)CC)C(C)C)C(=O)N[C@@H](CCCNC(=N)N)C(=O)N[C@@H](CCCCN)C(=O)N[C@@H](CCCCN)C(=O)N[C@@H](CCSC)C(=O)N[C@H](C(=O)N[C@@H](C)C(=O)N[C@@H](CCC(N)=O)C(=O)O)C(C)C", "note": "(H-NIPSLLRVQAHIRKKMVAQ-OH)", "values": [{"measurement": "Kd", "setting": "[14]", "value": 85, "unit": "nM"}]}
